Key:
[1] = test system: M. tuberculosis isolates; type: cell-based, Mycobacterium tuberculosis
[2] = human, in vivo
[3] = in vivo; cited from earlier work
[4] = test system: M. tuberculosis isolates; type: cell-based, Mycobacterium tuberculosis; remark: listed apart in the source

Structure (SMILES): NCC[C@H](O)C(=O)N[C@@H]1C[C@H](N)[C@@H](O[C@H]2O[C@H](CN)[C@@H](O)[C@H](O)[C@H]2O)[C@H](O)[C@H]1O[C@H]1O[C@H](CO)[C@@H](O)[C@H](N)[C@H]1O [Amikacin]
- Phenotypic DST [1]: S
- Phenotypic susceptibility [1]: phenotypically susceptible
- Routine phenotypic DST [1]: susceptible

Structure (SMILES): NNC(=O)c1ccncc1 [Isoniazid]
- adverse effect for which the drug was stopped [2]: vision problems

Structure (SMILES): CC1COc2c(N3CCN(C)CC3)c(F)cc3c(=O)c(C(=O)O)cn1c23 (stereo not drawn) [Ofloxacin]
- Phenotypic DST [1]: S and R

Structure (SMILES): NC(=O)c1cnccn1 [Pyrazinamide]
- adverse effect for which the drug was stopped [2]: persistent arthralgias and changes in vision

Structure (SMILES): COc1nc2ccc(Br)cc2cc1[C@@H](c1ccccc1)[C@@](O)(CCN(C)C)c1cccc2ccccc12 [bedaquiline]
- half-life [3]: 5.5 months
- acquired resistance to bedaquiline [4]: 39%

Structure (SMILES): CC[C@@H](CO)NCCN[C@@H](CC)CO [ethambutol]
- adverse effect for which the drug was stopped [2]: persistent arthralgias and changes in vision

Source: patent publication US12522877B2, “Early detection of drug-resistant mycobacterium tuberculosis” (The Translational Genomics Research Institute, priority 2020, dated 2026)
